{"source": "patent US11840686B2", "about": "“Modulation of prekallikrein (PKK) expression” (Ionis Pharmaceuticals, Inc., priority 2013, dated 2023)", "test_system": "human PKK mRNA", "test": "Antisense inhibition of human PKK mRNA in HepaRG cells, 5,000 nM (Example 2)", "type": "cell-based", "how_it_was_run": "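Percent inhibition of PKK mRNA is reported relative to untreated cells, after adjustment for total RNA by RIBOGREEN. Gapmers of 16–20 nucleosides with 2′-MOE wings were delivered at 5,000 nM by electroporation into HepaRG cells and left for roughly 24 hours before RNA isolation.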", "key": {"[1]": {"conditions": "HepaRG cells, electroporation, 5,000 nM antisense oligonucleotide, approx. 24 hours, primer probe set RTS3454, relative to untreated control cells, Table 12"}, "[2]": {"conditions": "HepaRG cells, 5,000 nM antisense oligonucleotide, 5-10-5 gapmers, Table 16"}, "[3]": {"conditions": "Table 7, HepaRG cells, electroporation with 5,000 nM antisense oligonucleotide, approx. 24 hours, PKK mRNA by RT-PCR (RTS3454), relative to untreated control cells"}, "[4]": {"conditions": "Table 9 experiment, HepaRG cells, 20,000 cells per well, electroporation with 5,000 nM antisense oligonucleotide, approx. 24 hours, PKK mRNA by RT-PCR (RTS3454), relative to untreated control cells"}, "[5]": {"conditions": "Table 10 experiment, HepaRG cells, 20,000 cells per well, electroporation with 5,000 nM antisense oligonucleotide, approx. 24 hours, PKK mRNA by RT-PCR (RTS3454), relative to untreated control cells"}, "[6]": {"conditions": "HepaRG cells, 5,000 nM antisense oligonucleotide, 5-10-5 gapmers, Table 17"}}, "note": "Strand notation (5' to 3'): a small letter for the sugar, then the base; units joined by * are phosphorothioate-linked, units joined directly phosphodiester-linked; [ ] holds rarer units or linkages, { } end groups; capitals alone tell only the bases. e = 2'-O-(2-methoxyethyl) (MOE); [5mC] = 5-methylcytosine; d = 2'-deoxy (DNA)", "data": [{"substance": "546447 (eG*eT*e[5mC]*eA*e[5mC]*d[5mC]*dA*dT*dA*dG*dA*d[5mC]*d[5mC]*d[5mC]*dA*eG*eA*eA*eT*e[5mC]; antisense) [compound 546447]", "values": [{"measurement": "% inhibition", "setting": "[1]", "result": 68, "unit": "%"}]}, {"substance": "546578 (eG*eA*e[5mC]*eA*eG*dT*dG*dG*dG*d[5mC]*d[5mC]*dA*dG*dA*dG*e[5mC]*e[5mC]*eT*eT*eG; antisense) [compound 546578]", "values": [{"measurement": "% inhibition", "setting": "[2]", "result": 73, "unit": "%"}]}, {"substance": "547384 (eA*eA*eA*e[5mC]*eA*dT*dT*dT*d[5mC]*dT*dT*dT*dG*dT*dG*eA*e[5mC]*eT*e[5mC]*eG; antisense) [compound 547384]", "values": [{"measurement": "% inhibition", "setting": "[3]", "result": 50, "unit": "%"}]}, {"substance": "547601 (antisense eG*eT*eA*e[5mC]*e[5mC]*dT*dA*dT*dA*dA*d[5mC]*dT*d[5mC]*dT*dA*eA*e[5mC]*eA*eG*eT) [compound 547601]", "values": [{"measurement": "% inhibition", "setting": "human PKK mRNA in HepaRG cells, 5-10-5 gapmers, Table 14", "result": 75, "unit": "%"}]}, {"substance": "546416 (e[5mC]*eT*eG*e[5mC]*eA*dG*dG*d[5mC]*dA*dA*dT*dA*dT*dT*dT*eT*eG*e[5mC]*eT*eT; antisense) [compound 546416]", "values": [{"measurement": "% inhibition", "setting": "[1]", "result": 62, "unit": "%"}]}, {"substance": "547488 (antisense eA*e[5mC]*eA*e[5mC]*e[5mC]*dA*dG*dG*dT*dT*dG*d[5mC]*dT*d[5mC]*d[5mC]*e[5mC]*eT*eG*e[5mC]*eG) [compound 547488]", "values": [{"measurement": "% inhibition", "setting": "[4]", "result": 71, "unit": "%"}, {"measurement": "% inhibition", "setting": "[5]", "result": 72, "unit": "%"}]}, {"substance": "548723 (DNA e[5mC]*eA*e[5mC]*dT*dG*dT*dA*d[5mC]*dT*dA*dG*dT*dT*eT*e[5mC]*e[5mC]*eT; antisense) [compound 548723]", "values": [{"measurement": "% inhibition", "setting": "HepaRG cells, 5,000 nM antisense oligonucleotide, human PKK mRNA, Table 18", "result": 62, "unit": "%"}]}, {"substance": "546217 (antisense e[5mC]*eA*e[5mC]*eA*eA*dA*dA*dG*d[5mC]*dA*dT*d[5mC]*dT*dG*dG*eA*eG*eT*eG*eA) [compound 546217]", "values": [{"measurement": "% inhibition", "setting": "[3]", "result": 83, "unit": "%"}]}, {"substance": "546911 (eG*eT*e[5mC]*e[5mC]*eT*dA*dT*dA*dA*d[5mC]*dT*dA*dT*dA*dA*e[5mC]*eA*eA*eT*eA; antisense) [compound 546911]", "values": [{"measurement": "% inhibition", "setting": "human PKK mRNA, HepaRG cells, 5-10-5 motif oligonucleotides targeting SEQ ID NO: 1 and 10", "result": 52, "unit": "%"}]}, {"substance": "546229 (antisense eA*e[5mC]*eA*eT*eT*dT*d[5mC]*dT*dT*dT*dG*dT*dG*dA*d[5mC]*eT*e[5mC]*eG*eA*eT) [compound 546229]", "values": [{"measurement": "% inhibition", "setting": "[3]", "result": 19, "unit": "%"}]}, {"substance": "546306 (antisense eT*eT*eT*eG*eG*dT*dG*dA*dA*dT*dA*dA*dT*dA*dA*eT*e[5mC]*eT*e[5mC]*eT) [compound 546306]", "values": [{"measurement": "% inhibition", "setting": "[4]", "result": 65, "unit": "%"}, {"measurement": "% inhibition", "setting": "[5]", "result": 71, "unit": "%"}]}, {"substance": "546369 (antisense e[5mC]*eT*e[5mC]*eA*eG*dG*dT*dT*dG*dT*dA*dA*dA*dA*dA*eT*eT*eG*e[5mC]*e[5mC]) [compound 546369]", "values": [{"measurement": "% inhibition", "setting": "HepaRG cells, electroporation, 5,000 nM antisense oligonucleotide, approx. 24 hours, primer probe set RTS3454, relative to untreated control cells, Table 11", "result": 51, "unit": "%"}]}, {"substance": "547760 (antisense eA*eT*e[5mC]*eA*eT*dG*d[5mC]*dT*dT*dA*d[5mC]*dT*dG*d[5mC]*dA*eA*eG*eT*eG*eA) [compound 547760]", "values": [{"measurement": "% inhibition", "setting": "[6]", "result": 19, "unit": "%"}]}, {"substance": "547380 (eT*eG*eA*e[5mC]*eT*d[5mC]*dG*dA*dT*dT*dT*dT*d[5mC]*d[5mC]*dA*eT*eA*e[5mC]*eA*eT; antisense) [compound 547380]", "values": [{"measurement": "% inhibition", "setting": "[3]", "result": 42, "unit": "%"}]}, {"substance": "547069 (eG*e[5mC]*e[5mC]*e[5mC]*eT*d[5mC]*d[5mC]*dG*dA*dG*d[5mC]*dT*dT*dT*dG*eG*e[5mC]*eA*eA*e[5mC]; antisense) [compound 547069]", "values": [{"measurement": "% inhibition", "setting": "[6]", "result": 35, "unit": "%"}]}, {"substance": "547704 (antisense eA*e[5mC]*eA*eT*e[5mC]*dT*dT*dG*dT*d[5mC]*dA*dT*dT*dA*dA*e[5mC]*eA*eT*e[5mC]*e[5mC]) [compound 547704]", "values": [{"measurement": "% inhibition", "setting": "[2]", "result": 61, "unit": "%"}]}, {"substance": "546823 (eT*eA*e[5mC]*eT*eA*dG*dT*dT*dT*d[5mC]*d[5mC]*dT*dA*dT*dA*eA*e[5mC]*eT*eG*e[5mC]; antisense) [compound 546823]", "values": [{"measurement": "% inhibition", "setting": "Table 13, human PKK mRNA in HepaRG cells, 5-10-5 gapmers", "result": 44, "unit": "%"}]}, {"substance": "547025 (eT*eG*eG*eT*eG*dG*dT*dG*dG*dG*dA*dT*dT*dG*dG*eT*eG*eG*eT*eT; antisense) [compound 547025]", "values": [{"measurement": "% inhibition", "setting": "[6]", "result": 72, "unit": "%"}]}, {"substance": "548775 (antisense eT*e[5mC]*e[5mC]*eT*dA*dT*dA*dA*d[5mC]*dT*dA*dT*dA*eA*e[5mC]*eA*eG) [compound 548775]", "values": [{"measurement": "% inhibition", "setting": "human PKK mRNA, HepaRG cells, 5,000 nM antisense oligonucleotide, Table 18", "result": 0, "unit": "%"}]}, {"substance": "547740 (eA*eG*eG*eT*eG*dG*dT*dG*dG*dG*dA*dT*dT*dG*dG*eT*eG*eG*eT*eG; antisense) [compound 547740]", "values": [{"measurement": "% inhibition", "setting": "[6]", "result": 30, "unit": "%"}]}]}
